Test results taken from patent US7691848B2, “Pyrrolobenzodiazepine arylcarboxamides and derivatives thereof as follicle-stimulating hormone receptor antagonists” (Wyeth, priority 2005, dated 2010).

Tests used:
hFSH-R = biological target: T1, hFSH-R (Homo sapiens, UniProt P23945); test: cAMP accumulation (RIA) in CHO-3D2 cells (hFSH-R), hFSH-induced; type: cell-based; details: for Emax: read-out: cAMP % efficacy
T1 construct: expressed in transfected cells; host or cells: CHO-3D2 cells (CHO-K1 parental line)
T1 sequence (P23945 18-695): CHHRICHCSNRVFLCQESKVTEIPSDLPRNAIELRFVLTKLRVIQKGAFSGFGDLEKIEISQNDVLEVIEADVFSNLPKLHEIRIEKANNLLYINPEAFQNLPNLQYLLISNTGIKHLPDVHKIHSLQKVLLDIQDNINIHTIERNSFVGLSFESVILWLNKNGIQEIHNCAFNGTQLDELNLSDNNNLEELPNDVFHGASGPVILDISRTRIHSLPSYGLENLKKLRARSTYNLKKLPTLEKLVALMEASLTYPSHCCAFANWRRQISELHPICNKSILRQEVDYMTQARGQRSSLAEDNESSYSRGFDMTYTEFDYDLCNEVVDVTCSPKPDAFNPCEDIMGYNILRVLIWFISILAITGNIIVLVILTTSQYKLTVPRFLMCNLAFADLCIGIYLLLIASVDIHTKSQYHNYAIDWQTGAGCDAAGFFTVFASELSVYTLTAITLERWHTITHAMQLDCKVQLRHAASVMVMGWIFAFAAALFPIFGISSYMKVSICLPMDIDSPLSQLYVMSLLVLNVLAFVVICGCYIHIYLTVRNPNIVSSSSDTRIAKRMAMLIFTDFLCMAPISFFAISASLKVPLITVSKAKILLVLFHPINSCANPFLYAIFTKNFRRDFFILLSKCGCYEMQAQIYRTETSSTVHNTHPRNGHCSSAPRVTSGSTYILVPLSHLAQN
Procedure: In Vitro Bio-Assay, Selectivity and Dependency of Agonists and Antagonists to the FSH Receptor
Compound Vehicle: Stock compounds were solubilized in 100% DMSO (Sigma-Aldrich Chemical Co., St. Louis, Mo.) at a concentration of 30 mM. The compounds subsequently were diluted in sterile assay medium consisting of Opti-MEM® I (Invitrogen/Life Technologies, Carlsbad, Calif.) with 0.1% (w/v) BSA (Sigma-Aldrich) prior to use in the bio-assay. The final concentration of DMSO in the assay was 0.1%.
Plated cells are then incubated at 37° C. in a humidified 5% CO2/95% air atmosphere.
Assay: On the day of the assay, cells were washed three times with 100 μl/well of assay medium consisting of Opti-MEM® I (Invitrogen/Life Technologies) with 0.1% (w/v) BSA (Sigma-Aldrich). Medium was removed and 100 μl of assay medium was added to each well. Plates were incubated for an additional 30 minutes at 37° C. […] Reactions were terminated by the addition of 50 μl of 0.2N hydrochloric acid to each well and cAMP-accumulation was measured by radioimmunoassay (RIA) using a commercially available kit (Amersham Biosciences, Piscataway, N.J.).
All test compounds were evaluated in a dose-response paradigm ranging from 0.01 to 30 μM. Controls and test compounds were evaluated in quadruplicate in a 96-well format.
Along with the test compounds, FSH also was run as a positive control in the agonist mode using concentrations ranging from 0.1-1000 ng/ml.
Data were analyzed by one-way analysis of variance and significant differences between treatments and control determined by Least Significant Difference test.
Test compounds were compared to the effect of purified human FSH.

human FSH receptor = biological target: T2, human FSH receptor (Homo sapiens, UniProt P23945); test: Follicle-Stimulating Hormone Receptor-Dependent Cre-Luciferase Reporter Gene Assay (CHO FSH-R 6CRE-Luc cells); type: cell-based; details: dose-response format, in presence of EC50 of purified human FSH
T2 construct: host or cells: CHO-K1 (CHO FSH-R 6CRE-Luc, 1D7 cells)
T2 sequence (P23945 18-695): T1 sequence (P23945 18-695)
Procedure, shortened: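 CHO-K1 cells stably expressing human FSH receptor and a 6×CRE-driven luciferase reporter; compounds in growth medium with 0.2% DMSO, incubated 4 h at 37 °C. Luciferase measured by chemiluminescence (RLU/sec/well); 2-dose results given as percent inhibition of the response to an EC50 concentration of FSH.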

SMILES	IC50 (hFSH-R)	melting point	IC50 (human FSH receptor)	Emax (hFSH-R)
COc1cc(C(=O)N2Cc3ccc(C(=O)NCc4cccc(C)c4)n3Cc3ccccc32)ccc1-c1ccccc1C [Example 37, 10-[(2-METHOXY-2′-METHYL-1,1′-BIPHENYL-4-YL)CARBONYL]-N-(3-METHYLBENZYL)-10,11-DIHYDRO-5H-PYRROLO[2,1-C][1,4]BENZODIAZEPINE-3-CARBOXAMIDE]	700 nM	165 to 166 °C	4030 nM	80%
COc1cc(C(=O)N2Cc3ccc(C(=O)NCc4ccc(C)cc4)n3Cc3ccccc32)ccc1-c1ccccc1C [Example 38, 10-[(2-METHOXY-2′-METHYL-1,1′-BIPHENYL-4-YL)CARBONYL]-N-(4-METHYLBENZYL)-10,11-DIHYDRO-5H-PYRROLO[2,1-C][1,4]BENZODIAZEPINE-3-CARBOXAMIDE]	500 nM	179 to 180 °C	1690 nM	83%
COc1cc(C(=O)N2Cc3ccc(C(=O)NCc4ccc5c(c4)OCO5)n3Cc3ccccc32)ccc1-c1ccccc1C [Example 40]	400 nM	167 to 168 °C	1050 nM	90%
COc1cc(C(=O)N2Cc3ccc(C(=O)NCc4ccccc4)n3Cc3ccccc32)ccc1-c1ccccc1C [Example 44, N-BENZYL-10-[(2-METHOXY-2′-METHYL-1,1′-BIPHENYL-4-YL)CARBONYL]-10,11-DIHYDRO-5H-PYRROLO[2,1-C][1,4]BENZODIAZEPINE-3-CARBOXAMIDE]	> 30000 nM	170 to 174 °C	1350 nM	
COc1cc(C(=O)N2Cc3ccc(C(=O)NCCc4ccc(O)cc4)n3Cc3ccccc32)ccc1-c1ccccc1C [Example 55, N-[2-(4-HYDROXYPHENYL)ETHYL]-10-[(2-METHOXY-2′-METHYL-1,1′-BIPHENYL-4-YL)CARBONYL]-10,11-DIHYDRO-5H-PYRROLO[2,1-C][1,4]BENZODIAZEPINE-3-CARBOXAMIDE]	13000 nM	190 to 194 °C	> 30000 nM	60%

Now from value to compound:

IC50 (hFSH-R)	melting point	IC50 (human FSH receptor)	Emax (hFSH-R)	SMILES
2600 nM	105 to 115 °C	5370 nM		Cc1ccccc1-c1ccc(C(=O)N2Cc3ccc(C(=O)NCc4cccc(N)c4)n3Cc3ccccc32)cc1C [Example 34]
6300 nM	176 to 177 °C	4330 nM	74%	COc1cc(C(=O)N2Cc3ccc(C(=O)NCc4cccc(C(F)(F)F)c4)n3Cc3ccccc32)ccc1-c1ccccc1C [Example 42, 10-[(2-METHOXY-2′-METHYL-1,1′-BIPHENYL-4-YL)CARBONYL]-N-[3-(TRIFLUOROMETHYL)BENZYL]-10,11-DIHYDRO-5H-PYRROLO[2,1-C][1,4]BENZODIAZEPINE-3-CARBOXAMIDE]
400 nM	214 to 215 °C	1130 nM	95%	COc1cc(C(=O)N2Cc3ccc(C(=O)NCc4ccc(F)cc4)n3Cc3ccccc32)ccc1-c1ccccc1C [Example 60, N-(4-FLUOROBENZYL)-10-[(2-METHOXY-2′-METHYL-1,1′-BIPHENYL-4-YL)CARBONYL]-10,11-DIHYDRO-5H-PYRROLO[2,1-C][1,4]BENZODIAZEPINE-3-CARBOXAMIDE]
1300 nM	153 to 155 °C	3400 nM	79%	COc1cc(C(=O)N2Cc3ccc(C(=O)NCc4ccc5c(c4)OCCO5)n3Cc3ccccc32)ccc1-c1ccccc1C [Example 64]
